Test results: patent publication US9526785B2, “Pharmaceuticals for oral delivery” (Enteris BioPharma, Inc., priority 2013, dated 2016)
Where two headings read alike, the source gives them in different places.

Experiment: Tigecycline plasma PK and % F after PO enteric-coated capsule in dogs
Format: in vivo, Beagle dogs
Conditions: female, beagle, dog, plasma, po; for concentration at 2 hr / concentration at 3 hr / concentration at 4 hr / concentration at 5 hr / concentration at 6 hr / concentration at 8 hr / concentration at 10 hr / concentration at 24 hr: PO 30 mg unformulated enteric-coated capsule; for concentration at 0 min: Time (min) 0.0; for concentration at 0.3 min: Time (min) 0.3; for concentration at 24 min: Time (min) 24.0; for bioavailability: read-out: % F
Experimental: Adult beagle dogs weighing approximately 9 to 15 kg were used in the study. […] Room temperature was set to be maintained between approximately 20±5° C. Relative humidity was monitored but not controlled.
TEKLAD™ Certified Canine Diet was provided once daily in amounts (˜400 grams) appropriate for the size and age of the animals. Tap water was available ad libitum via automatic watering device or water bowls.
Oral dosing of enteric-coated capsules was accomplished by administering them to the back of the dog's mouth, followed by a chase of 5 mL water to ensure swallowing.
Water was provided ad libitum. […] Subsequently, each group of animals was dosed based on the protocol, i.e. either IV, or PO by capsule.
Minocycline (VWR international) was used as an internal standard. Sample processing/clean-up of plasma samples was carried out offline by protein precipitation with acidified acetonitrile using 0.5% trifluoroacetic acid (TFA).
The HPLC system consisted of Shimadzu SIL-HTc HPLC system equipped with dual Shimadzu LC-10ADvp isopumps, a Shimadzu CTO-10ASvp column temperature controller and a Shimadzu SPD-10Avp variable wavelength detector. […] Mobile phase A consisted of 23 mM phosphate buffer pH 2.5 with 4 mM 1-octanesulfonic acid, while mobile phase B consisting of 90% acetonitrile, 10% water, with 2 mM 1-octanesulfonic acid. […] The total runtime was 18 minutes per sample. The mobile phase flow rate was 1.2 mL/min. Detection was performed using the SPD-10Avp variable wavelength detector set at 350 nm, with a sensitivity of 0.001 aufs.
The samples were then centrifuged under refrigeration at 13 k rpm for 5 minutes. The supernatant was taken and the liquid removed to dryness under nitrogen in a turbovap. The dried extract was reconstituted in 60 μL of mobile phase A and the suspension was further centrifuged at 5 k rpm for 5 minutes to pellet any insoluble matter. The resulting supernatant was then injected onto the LC.
The unknown concentration in dog plasma samples was determined by interpolation of the peak area ratios of analyte:internal standard versus the ratio of their nominal concentrations into the regression line obtained from calibration standards spiked in pooled dog plasma. No regression weighting was used for the calculations. […] The calibration curve covered the range of 0.05 μg/mL to 5 μg/mL. […]
The capsules were enterically coated using a standard preclinical protocol to 10% weight gain. Two studies were conducted.

[1] = 30 mg, Tigecycline Plasma Concentration, SC430, individual dogs
[2] = 30 mg, Tigecycline Plasma Concentration, SC430, mean
[3] = 30 mg, Tigecycline Plasma Concentration, PO 30 mg enteric-coated capsule with 500 mg CA and 100 mg LLC, SC430, individual dogs
[4] = 30 mg, Tigecycline Plasma Concentration, PO 30 mg enteric-coated capsule with 500 mg CA and 100 mg LLC, SC430, mean

CN(C)c1cc(NC(=O)CNC(C)(C)C)c(O)c2c1C[C@H]1C[C@H]3[C@H](N(C)C)C(O)=C(C(N)=O)C(=O)[C@@]3(O)C(O)=C1C2=O [Tigecycline]
concentration at 2 hr [1]: 0 µg/mL
concentration at 2 hr [2]: 0 µg/mL
concentration at 3 hr [1]: 0 µg/mL
concentration at 3 hr [2]: 0 µg/mL
concentration at 4 hr [1]: 0 µg/mL
concentration at 4 hr [2]: 0 µg/mL
concentration at 5 hr [1]: 0 µg/mL
concentration at 5 hr [2]: 0 µg/mL
concentration at 6 hr [1]: 0 µg/mL
concentration at 6 hr [2]: 0 µg/mL
concentration at 8 hr [1]: 0 µg/mL
concentration at 8 hr [2]: 0 µg/mL
concentration at 10 hr [1]: 0 µg/mL
concentration at 10 hr [2]: 0 µg/mL
concentration at 0 min [3]: 0 µg/mL
concentration at 0 min [4]: 0 µg/mL
concentration at 0.3 min [3]: 0 µg/mL
concentration at 0.3 min [4]: 0 µg/mL
concentration at 0.7 min (30 mg, Tigecycline Plasma Concentration, Time (min) 0.7, PO 30 mg enteric-coated capsule with 500 mg CA and 100 mg LLC, SC430, mean): 0.0264 µg/mL
concentration at 1 min (30 mg, Tigecycline Plasma Concentration, Time (min) 1.0, PO 30 mg enteric-coated capsule with 500 mg CA and 100 mg LLC, SC430, mean): 0.049 µg/mL
concentration at […] (30 mg, Tigecycline Plasma Concentration, Time (min) 1.3, PO 30 mg enteric-coated capsule with 500 mg CA and 100 mg LLC, SC430, mean): 0.0512 µg/mL
concentration at […] (30 mg, Tigecycline Plasma Concentration, Time (min) 1.7, PO 30 mg enteric-coated capsule with 500 mg CA and 100 mg LLC, SC430, mean): 0.0636 µg/mL
concentration at 2 min (30 mg, Tigecycline Plasma Concentration, Time (min) 2.0, PO 30 mg enteric-coated capsule with 500 mg CA and 100 mg LLC, SC430, mean): 0.0835 µg/mL
concentration at […] (30 mg, Tigecycline Plasma Concentration, Time (min) 2.3, PO 30 mg enteric-coated capsule with 500 mg CA and 100 mg LLC, SC430, mean): 0.0721 µg/mL
concentration at […] (30 mg, Tigecycline Plasma Concentration, Time (min) 2.7, PO 30 mg enteric-coated capsule with 500 mg CA and 100 mg LLC, SC430, mean): 0.0591 µg/mL
concentration at 3 min (30 mg, Tigecycline Plasma Concentration, Time (min) 3.0, PO 30 mg enteric-coated capsule with 500 mg CA and 100 mg LLC, SC430, mean): 0.0499 µg/mL
concentration at […] (30 mg, Tigecycline Plasma Concentration, Time (min) 3.3, PO 30 mg enteric-coated capsule with 500 mg CA and 100 mg LLC, SC430, mean): 0.0424 µg/mL
concentration at […] (30 mg, Tigecycline Plasma Concentration, Time (min) 3.7, PO 30 mg enteric-coated capsule with 500 mg CA and 100 mg LLC, SC430, mean): 0.0406 µg/mL
concentration at 4 min (30 mg, Tigecycline Plasma Concentration, Time (min) 4.0, PO 30 mg enteric-coated capsule with 500 mg CA and 100 mg LLC, SC430, mean): 0.0366 µg/mL
concentration at […] (30 mg, Tigecycline Plasma Concentration, Time (min) 4.5, PO 30 mg enteric-coated capsule with 500 mg CA and 100 mg LLC, SC430, mean): 0.0335 µg/mL
concentration at 5 min (30 mg, Tigecycline Plasma Concentration, Time (min) 5.0, PO 30 mg enteric-coated capsule with 500 mg CA and 100 mg LLC, SC430, mean): 0.0318 µg/mL
concentration at […] (30 mg, Tigecycline Plasma Concentration, Time (min) 5.5, PO 30 mg enteric-coated capsule with 500 mg CA and 100 mg LLC, SC430, mean): 0.0379 µg/mL
concentration at 6 min (30 mg, Tigecycline Plasma Concentration, Time (min) 6.0, PO 30 mg enteric-coated capsule with 500 mg CA and 100 mg LLC, SC430, mean): 0.0212 µg/mL
concentration at 8 min (30 mg, Tigecycline Plasma Concentration, Time (min) 8.0, PO 30 mg enteric-coated capsule with 500 mg CA and 100 mg LLC, SC430, mean): 0.00727 µg/mL
concentration at 10 min (30 mg, Tigecycline Plasma Concentration, Time (min) 10.0, PO 30 mg enteric-coated capsule with 500 mg CA and 100 mg LLC, SC430, mean): 0.00258 µg/mL
concentration at 24 min [3]: 0 µg/mL
concentration at 24 min [4]: 0 µg/mL
concentration at 24 hr [1]: 0 µg/mL
concentration at 24 hr [2]: 0 µg/mL
Cmax (30 mg, target dose 30 mg, enterically coated capsule, excluding animal 5256, read-out: Observed Mean Cmax): 0.121 µg/mL
AUC(0-t) (30 mg, target dose 30 mg, enterically coated capsule, time scale adjusted to 4 hours, excluding animal 5256, read-out: Observed AUC(0-t)): 0.214 µg·h/mL
bioavailability (30 mg): 14.9%
AUC(0-t) (30 mg, read-out: AUC(0-t)): 0.367 µg·h/mL
Cmax (30 mg, read-out: Cmax): 0.121 µg/mL
bioavailability (45 mg, 45 mg Formulated (500 mg CA, 100 mg LLC) enteric coated capsule, Study 2 (SC430), mean (% CV)): 15.5%
AUC(0-t) (45 mg, 45 mg Formulated (500 mg CA, 100 mg LLC) enteric coated capsule, Study 2 (SC430), mean (% CV), read-out: AUC(0-t)): 0.574 µg·h/mL
Cmax (45 mg, 45 mg Formulated (500 mg CA, 100 mg LLC) enteric coated capsule, Study 2 (SC430), mean (% CV), read-out: Cmax): 0.177 µg/mL
